Source: ChEMBL document CHEMBL4014274, “Oligothiophene compounds inhibit the membrane fusion between H5N1 avian influenza virus and the endosome of host cell” (Eur J Med Chem, 2017)

Columns and labels:
[1] = Inhibition of Influenza A virus (A/Thailand/Kan353/2004(H5N1)) hemagglutinin expressed in human 293T cells coexpressing NA assessed as reduction in HA mediated viral membrane fusion with MDCK cells pretreated for 30 mins with virus followed by infection in MDCK cells measured after 48 hrs by luciferase reporter gene assay; type: cell-based
[2] = Inhibition of Influenza A virus (A/Puerto Rico/8/34(H1N1)) neuraminidase activity infected in MDCK cells assessed as reduction in progeny production using 2-(4-Methylumbelliferyl)-a-D-N-acetylneuraminic acid sodium salt as substrate pretreated for 1 hr with virus followed by 1 hr infection in MDCK cells measured after 48 hrs by fluorescence assay; type: cell-based, Influenza A virus (A/Puerto Rico/8/1934(H1N1))
[3] = Cytotoxicity against MDCK cells after 2 days by MTT assay; type: cell-based, Canis lupus familiaris; conditions: dog
[4] = tested on: Influenza A virus (A/Thailand/Kan353/2004(H5N1)); assay: Potency index, ratio of CL-385319 IC50 to compound IC50 for inhibition of Influenza A virus (A/Thailand/Kan353/2004(H5N1)) hemagglutinin expressed in human 293T cells coexpressing NA assessed as reduction in HA mediated viral membrane fusion with MDCK cells; type: cell-based
[5] = Influenza A virus, read-out: IC50

| Structure (SMILES) | IC50 [1] | IC50 [1, 5] [µM] | CC50 at 48 h [3] [µM] | also measured |
| --- | --- | --- | --- | --- |
| BrCCCCc1ccc(-c2ccc(-c3ccc(-c4ccc(CCCCBr)s4)s3)s2)s1 | Not Active |  |  |  |
| NCCCc1ccc(-c2ccc(-c3ccc(-c4cccs4)s3)s2)s1 |  | 0.171 | > 200 | IC50 [2]: 0.768 µM |
| NCCCCc1ccc(CCCCN)s1 | Not Active |  |  |  |
| O=C(NCCN1CCCCC1)c1cc(F)cc(C(F)(F)F)c1 |  | 10.6 | 1370 | IC50 [2]: 72 µM |
| O=C(NCCc1cccs1)c1cc(F)cc(C(F)(F)F)c1 |  | 0.22 |  |  |
| O=C(NCCCc1ccc(-c2cccs2)s1)c1cc(F)cc(C(F)(F)F)c1 |  | 42.1 | 46.7 |  |
| NCCCCc1ccc(-c2ccc(-c3cccs3)s2)s1 |  | 0.029 | 13.3 | IC50 [2]: 1.24 µM; Ratio IC50 [4]: 1000 |
| BrCCCCc1ccc(-c2ccc(-c3ccc(CCCCBr)s3)s2)s1 |  | 0.696 | > 200 |  |
| O=C(NCCCc1ccc(-c2ccc(CCCNC(=O)c3cc(O)cc(O)c3)s2)s1)c1cc(O)cc(O)c1 | Not Active |  |  |  |
| NCCCCc1ccc(-c2ccc(-c3ccc(-c4cccs4)s3)s2)s1 | Not Active |  |  |  |
| O=C(NCCCCc1ccc(CCCCNC(=O)c2cc(F)cc(C(F)(F)F)c2)s1)c1cc(F)cc(C(F)(F)F)c1 | Not Active |  |  |  |
| NCCCc1ccc(-c2ccc(-c3cccs3)s2)s1 |  | 2.88 | 18.9 | IC50 [2]: 1.12 µM |
| NCCCc1ccc(-c2ccc(-c3ccc(CCCN)s3)s2)s1 |  | 4.15 | > 200 |  |
| O=C(NCCCc1ccc(-c2ccc(-c3ccc(CCCNC(=O)c4cc(F)cc(C(F)(F)F)c4)s3)s2)s1)c1cc(F)cc(C(F)(F)F)c1 | Not Active |  |  |  |
| O=C(NCCCCc1ccc(-c2cccs2)s1)c1cc(F)cc(C(F)(F)F)c1 |  | 19.8 | 27.4 |  |
| [N-]=[N+]=NCCCc1ccc(-c2ccc(-c3cccs3)s2)s1 |  | 23 | > 200 |  |
| NCCCCc1ccc(-c2ccc(-c3ccc(CCCCN)s3)s2)s1 |  | 0.037 | 13 | IC50 [2]: 3.29 µM |
| O=C(NCCCCc1ccc(-c2ccc(CCCCNC(=O)c3cc(F)cc(C(F)(F)F)c3)s2)s1)c1cc(F)cc(C(F)(F)F)c1 | Not Active |  |  |  |
| O=C(NCCCCc1ccc(-c2ccc(-c3cccs3)s2)s1)c1cc(F)cc(C(F)(F)F)c1 | Not Active |  |  |  |
| [N-]=[N+]=NCCCc1ccc(-c2ccc(-c3ccc(-c4cccs4)s3)s2)s1 |  | 46.1 | > 100 |  |
| O=C(NCCCc1ccc(-c2ccc(CCCNC(=O)c3ccccc3Cl)s2)s1)c1ccccc1Cl | Not Active |  |  |  |

| Structure (SMILES) | IC50 [1] | IC50 [1, 5] [µM] | CC50 at 48 h [3] [µM] | also measured |
| --- | --- | --- | --- | --- |
| NCCCc1ccc(-c2ccc(CCCN)s2)s1 | Not Active |  |  |  |
| BrCCCc1ccc(-c2ccc(CCCBr)s2)s1 | Not Active |  |  |  |
| [N-]=[N+]=NCCCCc1ccc(-c2ccc(-c3ccc(-c4ccc(CCCCN=[N+]=[N-])s4)s3)s2)s1 | Not Active |  |  |  |
| BrCCCCc1ccc(-c2ccc(-c3cccs3)s2)s1 |  | 11.4 | 23.8 |  |
| O=C(NCCCCc1cccs1)c1cc(F)cc(C(F)(F)F)c1 |  | 4.73 | 43.5 |  |
| BrCCCc1ccc(-c2ccc(-c3ccc(-c4cccs4)s3)s2)s1 |  | 74.1 | > 200 |  |
| O=C(NCCCc1cccs1)c1cc(F)cc(C(F)(F)F)c1 |  | 7.24 | 40.2 |  |
| O=C(NCCCCc1ccc(-c2ccc(-c3ccc(CCCCNC(=O)c4cc(F)cc(C(F)(F)F)c4)s3)s2)s1)c1cc(F)cc(C(F)(F)F)c1 | Not Active |  |  |  |
| NCCCCc1ccc(-c2ccc(CCCCN)s2)s1 |  | 0.0819 | 26.5 |  |
| BrCCCc1ccc(-c2ccc(-c3ccc(CCCBr)s3)s2)s1 |  | 6.64 | > 200 |  |
| NCCCCc1ccc(-c2cccs2)s1 | Not Active |  |  |  |
| BrCCCc1ccc(-c2ccc(-c3cccs3)s2)s1 |  | 12.5 | 35.3 |  |
| BrCCCCc1ccc(-c2ccc(-c3ccc(-c4cccs4)s3)s2)s1 | Not Active |  |  |  |
| [N-]=[N+]=NCCCCc1ccc(-c2ccc(-c3cccs3)s2)s1 |  | 11.1 | > 200 |  |
| NCCCCc1ccc(-c2ccc(-c3ccc(-c4ccc(CCCCN)s4)s3)s2)s1 | Not Active |  |  |  |
| O=C(NCCCc1ccc(-c2ccc(-c3cccs3)s2)s1)c1cc(F)cc(C(F)(F)F)c1 | Not Active |  |  |  |
| BrCCCCc1ccc(CCCCBr)s1 | Not Active |  |  |  |
| [N-]=[N+]=NCCCCc1ccc(-c2ccc(-c3ccc(CCCCN=[N+]=[N-])s3)s2)s1 | Not Active |  |  |  |
| [N-]=[N+]=NCCCCc1ccc(-c2ccc(-c3ccc(-c4cccs4)s3)s2)s1 | Not Active |  |  |  |
| O=C(NCCCc1ccc(-c2ccc(CCCNC(=O)c3cc(F)cc(C(F)(F)F)c3)s2)s1)c1cc(F)cc(C(F)(F)F)c1 | Not Active |  |  |  |
| O=C(NCC(c1cccs1)N1CCCC1)c1cc(F)cc(C(F)(F)F)c1 (stereo not drawn) |  | 6.41 | 239 |  |
